In general, Ki refers to a dissociation constant, usually derived from enzyme kinetics or from competition with a known ligand.

Assay [1] concerns the target high affinity nicotinic receptors. Nature of the assay: Inhibition of L-[3H]nicotine binding to mouse brain membrane preparations. Conditions: mouse brain membranes, 2 hr at 4° C., Ki calculated from IC50 by method of Cheng et al. Further details: species or system Mice (DBA strain). The method, then: Mice (DBA strain) were maintained on a 12 hour light/dark cycle and were allowed free access to water and food supplied by Wayne Lab Blox, Madison, WI. Animals used in the present studies were 60 to 90 days of age and weighed 20 to 25 g. Brain membrane preparations were obtained from pooled brain tissue of both males and females.
Mice were killed by cervical dislocation. Brains were removed and placed on an ice-cold platform. The cerebellum was removed and the remaining tissue was placed in 10 volumes (weight:volume) of ice-cold buffer (Krebs-RingersHEPES:NaCl, 118 mM; KCl, 4.8 mM; CaCl2, 2.5 mM; MgSO4, 1.2 mM; HEPES, 20 mM; pH to 7.5 with NaOH) and homogenized with a glass-Teflon tissue grinder. The resulting homogenate was centrifuged at 18000×g for 20 min. and the resulting pellet was resuspended in 20 volumes of water. […] Protein was determined by the method of Lowry, et al., J. Biol. Chem., Vol. 193, pp. 265-275 (1951), using bovine serum albumin as the standard.
The binding of L-[^3 H]nicotine was measured using a modification of the method of Romano, et al., Science, Vol. 210, pp. 647-650 (1980) as described previously by Marks, et al., Mol. Pharmacol., Vol. 30, pp. 427-436 (1986). The binding of L-[^3 H]nicotine was measured using a 2 hr. incubation at 4° C. […] Nonspecific binding was determined by inclusion of 10 μM nonradioactive nicotine in the incubations. […]

Assay [2] relates to synaptosomes from the striatal area of rat brain. Nature of the assay: [3H]-dopamine release from rat striatal synaptosomes. In kind it is biochemical, Sprague-Dawley rats. Conditions: 0.2 ml of 10 μM solution of ligand; relative to equal concentration of (S)-(-)-nicotine. The method, then: Dopamine release was measured by preparing synaptosomes from the striatal area of rat brain obtained from Sprague-Dawley rats generally according to the procedures set forth by Nagy, et al., J. Neurochem., Vol. 43, pp. 1114-1123 (1984). Striata from 4 rats were homogenized in 2 ml of 0.32M sucrose buffered with 5 mM HEPES (pH 7.5), using a glass-teflon tissue grinder. The homogenate was diluted to 5 ml with additional homogenization solution and centrifuged at 1000×g for 10 min. This procedure was repeated on the new pellet and the resulting supernatant was centrifuged at 12,000×g for 20 min. […] Using this method, 30 to 90 percent of the dopamine was taken up into the synaptosomes, as determined by scintillation counting following filtration through glass fiber filters soaked with 0.5 percent polyethyleneimine. […] After the addition of a 0.2 ml of a 10 μM solution of ligand, the perfusate was collected into scintillation vials at 1 min. intervals and the dopamine released was quantified by scintillation counting. Peaks of radioactivity released above background were summed and the average basal release during that time was subtracted from the total. Release was expressed as a percentage of release obtained with an equal concentration of (S)-(-)-nicotine.

With `CNCCCC(=O)c1cccnc1` [pseudooxynicotine], in assay [1], the Ki is 1700 nM. For the same compound, in assay [2], the “Dopamine Release, percent release relative to (S)-(-)-nicotine” value was 45%.

The record behind these values is US5232932A, “Method for treatment of neurodegenerative diseases” (R. J. Reynolds Tobacco Company, priority 1992, dated 1993).
